One block for each substance: values may come before it. No end group written: not given here.
How the values were obtained:
[1] = biological target: T1, adenylate cyclase in human renal cortical membranes (RCM) (Homo sapiens, UniProt Q03431); test: Adenylate cyclase assay in human kidney membranes; type: biochemical; details: both membrane preparations (RCM and SaOS-2 membranes)
T1 sequence (Q03431 27-593): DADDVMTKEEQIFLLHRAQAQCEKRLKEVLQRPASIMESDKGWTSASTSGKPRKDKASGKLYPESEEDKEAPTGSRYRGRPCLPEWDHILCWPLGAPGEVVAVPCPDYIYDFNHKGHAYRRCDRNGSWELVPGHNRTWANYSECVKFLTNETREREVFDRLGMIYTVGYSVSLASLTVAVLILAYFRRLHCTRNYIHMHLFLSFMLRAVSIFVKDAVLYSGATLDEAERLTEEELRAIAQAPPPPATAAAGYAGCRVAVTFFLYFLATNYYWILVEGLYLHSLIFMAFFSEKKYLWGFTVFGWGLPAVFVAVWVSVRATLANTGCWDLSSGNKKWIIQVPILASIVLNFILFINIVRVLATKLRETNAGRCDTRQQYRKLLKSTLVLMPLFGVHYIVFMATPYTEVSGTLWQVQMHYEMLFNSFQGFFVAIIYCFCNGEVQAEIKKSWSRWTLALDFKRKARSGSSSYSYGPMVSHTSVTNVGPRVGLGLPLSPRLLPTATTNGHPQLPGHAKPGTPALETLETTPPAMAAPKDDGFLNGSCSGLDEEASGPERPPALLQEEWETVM
Description: (§1) Therefore, dose response curves for each peptide were generated at 30° C. for 10 min in human kidney and 30° C. for 30 min in SaOS-2 membranes. As with the intact cell adenylate cyclase assays, kidney and bone cell membrane adenlyate cyclase assays were performed under binding assay conditions. Results are expresses as percentage of maximal cAMP stimulation in order to compare peptide dose responses from different experiments.
(§2) Statistical differences were assessed by paired and unpaired two-tailed Student's t test.

[2] = system: adenylate cyclase in SaOS-2 membranes; test: Adenylate cyclase assay in SaOS-2 cell membranes; type: biochemical, human; details: 30° C., 30 min
Description: as §1, §2

[3] = system: adenylate cyclase in SaOS-2 intact cells; test: Adenylate cyclase assay in SaOS-2 intact cells; type: cell-based, human; details: 15° C., 60 min
Description: Adenylate cyclase-stimulating activity was examined in confluent SAOS-2 cells as previously described for ROS 17/2.8 cells (Merendino et al., Science 231:388-390, (1986)), with the following modification. The intact cell assay was conducted at 15° C., the same conditions employed for binding to intact SaOS-2 cells (vide supra). […] Dose response curves for each peptide were thus generated using 60 min incubations at 15° C. under binding assay conditions.
as §2

[4] = system: adenylate cyclase in canine renal cortical membranes (CRCM); test: Canine renal cortical membrane adenylate cyclase assay, standard assay; type: biochemical; details: 30 min, 30° C.
[5] = system: adenylate cyclase in highly purified canine renal membranes; test: Canine renal adenylate cyclase assay under binding assay conditions; type: biochemical; details: 20° C., 20 min, with bacitracin
[6] = system: ovariectomized osteopenic rats; details: ovariectomized osteopenic rats (Vickery et al.); cited from earlier work
[7] = system: ovariectomized (OVX) rats; test: Body weight, serum chemistries, kidney calcium and deaths in ovariectomized rats
Description: All studies were performed using virus- and antibody-negative female Sprague-Dawley rats from Harlan Sprague-Dawley (Indianapolis, Ind.). All rats underwent sham ovariectomy or ovariectomy at 5 months of age. Studies began at six months of age, one month following ovariectomy or sham operation. Rats were maintained on a diet containing 0.5% calcium and 0.4% phosphorus. The light cycle was 12 hours.
The protocol employed is described in schematic form in Table IV. Animals were randomly assigned to 17 groups of 10 as described in the Table. […] For the peptide-treated animals, the peptide was administered daily, subcutaneously at a dose of 40 μg/kg/day, in the vehicle described above. For vehicle-treated animals, vehicle alone was administered in an identical fashion.
Serum and urine chemistries as described in Table XI were performed using standard autoanalyser methods (Boehringer-Mannheim-Hitachi, Indianapolis, Ind.). Kidney calcium content was determined following extraction of whole kidneys in 5% trichloroacetic acid, followed by calcium measurement by calcium analyzer (Calcette, Midfield, Mass.).

[8] = biological target: T2, PTH/PTHrP receptors in canine renal membranes (Canis lupus familiaris, UniProt Q9TU31); test: Competition binding to canine renal cortical membranes; details: Scatchard analysis of equilibrium binding data
T2 construct: The renal cortex from adult mongrel dogs was homogenized; from tissue; host or cells: renal cortex of adult mongrel dogs, purified membranes
T2 sequence (Q9TU31 29-595): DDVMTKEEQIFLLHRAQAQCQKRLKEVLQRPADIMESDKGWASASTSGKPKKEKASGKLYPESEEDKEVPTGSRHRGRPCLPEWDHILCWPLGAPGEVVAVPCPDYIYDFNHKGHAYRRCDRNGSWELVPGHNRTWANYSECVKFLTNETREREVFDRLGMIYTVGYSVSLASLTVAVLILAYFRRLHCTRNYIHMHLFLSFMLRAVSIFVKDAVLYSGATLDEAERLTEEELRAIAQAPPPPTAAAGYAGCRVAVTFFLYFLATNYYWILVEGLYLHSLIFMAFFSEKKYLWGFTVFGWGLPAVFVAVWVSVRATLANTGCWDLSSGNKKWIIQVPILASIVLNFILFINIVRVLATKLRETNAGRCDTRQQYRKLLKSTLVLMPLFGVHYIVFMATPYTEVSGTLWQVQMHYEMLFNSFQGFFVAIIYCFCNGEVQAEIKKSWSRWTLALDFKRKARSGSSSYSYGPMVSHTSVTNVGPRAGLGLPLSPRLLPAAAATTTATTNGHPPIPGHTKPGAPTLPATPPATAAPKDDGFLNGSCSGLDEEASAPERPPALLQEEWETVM

Substance: [MAP1-10]22-31 hPTHrP-(1-34)NH2
anabolic activity versus parent peptide [6]: greater anabolic activity than the parent peptide

Substance: SVSEIQLLHDKGKHLASQERVEWLRKKLQDVHTA [SDZ PTH 893, Leu^8, Asp^10, Lys^11, Ala^16, Gln^18, Thr^33, Ala^34hPTH(1-34)]
treated animals that died during the study ([7]; 30 OVX rats per peptide, 40 μg/kg/day, six month study): 13%
renal calcium content, in words ([7]; rat, in vivo): marked increases in renal calcium content

Substance: [Nle^8,18,Tyr^34]hPTH-(1-34)amide
Bmax [8]: 2.73±0.31 pmol/mg protein

More lines, now with the values ahead:

more potent than hPTHrP-(1-36) in stimulating adenylate cyclase [1]: 10 fold
EC50 [2]: 0.09 ± 0.03 nM
EC50 [3]: 0.9 ± 0.1 nM
Substance: rat (r)PTH-(1-34) [rPTH-(1-34)]

EC50 [2]: 0.5 ± 0.06 nM
EC50 [3]: 1.2 ± 0.1 nM
potency relative to PTHrP-(1-36) [4]: greater than 6 fold
adenylate cyclase stimulation greater than for PTHrP-(1-36) [5]: 15 fold
Substance: bovine (b)PTH-(1-34) [bPTH-(1-34)]
